Assay results taken from US8759342B2, “Benzo[1,4]oxazin-3-one, benzo[1,4]thiazin-3-one and quinolin-2-one urotensin II receptor antagonists” (Janssen Pharmaceutica NV, priority 2006, dated 2014).
Where two headings read alike, the source gives them in different places.

Experiments:
[1] = system: streptozotocin-induced diabetic rats; conditions: long-term treatment; cited from earlier work
[2] = target: T1, rat GPR14 (U-II receptor) (Rattus norvegicus, UniProt P49684); conditions: agonist; calcium mobilization; read-out: FLIPR EC50; cited from earlier work
T1 construct: expressed in transfected cells
T1 sequence (P49684 1-386): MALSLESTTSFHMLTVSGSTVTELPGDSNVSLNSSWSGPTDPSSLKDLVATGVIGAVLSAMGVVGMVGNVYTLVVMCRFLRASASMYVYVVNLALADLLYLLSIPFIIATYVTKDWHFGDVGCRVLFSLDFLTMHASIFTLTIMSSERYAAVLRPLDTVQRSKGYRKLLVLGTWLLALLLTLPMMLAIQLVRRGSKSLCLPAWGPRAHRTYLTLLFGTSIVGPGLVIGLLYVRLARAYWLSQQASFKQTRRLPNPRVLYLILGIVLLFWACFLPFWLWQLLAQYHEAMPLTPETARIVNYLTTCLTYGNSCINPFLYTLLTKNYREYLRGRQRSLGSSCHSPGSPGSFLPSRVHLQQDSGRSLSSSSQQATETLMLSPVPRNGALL

[3] = target: T2, (Rattus norvegicus, UniProt P49684); conditions: read-out: rU-II Ki; cited from earlier work
T2 sequence (P49684 1-386): T1 sequence (P49684 1-386)

Human UII receptors = target: T3, Human UII receptors (Homo sapiens, UniProt Q9UKP6); assay: Human radioligand binding assay, (125I)-U-II on HSMM; conditions: 0.150 nM (125I)-U-II, intact Human Skeletal Muscle Myoblasts, 3 hrs, 25° C.; read-out: Ki
T3 construct: host or cells: Human Skeletal Muscle Myoblasts (HSMM), intact adherent cells
T3 sequence (Q9UKP6 1-389): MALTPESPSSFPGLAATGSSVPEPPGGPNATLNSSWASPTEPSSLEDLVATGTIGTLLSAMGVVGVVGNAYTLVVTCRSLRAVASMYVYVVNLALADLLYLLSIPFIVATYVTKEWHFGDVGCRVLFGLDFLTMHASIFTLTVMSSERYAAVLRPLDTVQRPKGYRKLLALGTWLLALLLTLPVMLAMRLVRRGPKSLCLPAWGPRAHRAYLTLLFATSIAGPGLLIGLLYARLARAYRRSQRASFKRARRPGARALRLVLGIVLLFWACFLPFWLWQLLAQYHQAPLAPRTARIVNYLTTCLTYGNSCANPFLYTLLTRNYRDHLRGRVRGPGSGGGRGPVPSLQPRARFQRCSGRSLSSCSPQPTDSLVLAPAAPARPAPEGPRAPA
Experimental: Human Skeletal Muscle Myoblasts (HSMM) were obtained from Cambrex, and were cultured according to manufacturer's instruction. Cell viability was examined by trypan blue exclusion. Cells at less than 4 passages were used in all studies. […] The binding medium used was Dulbecco's modified Eagle's medium (DMEM) containing 2 mg/ml BSA and 25 mM HEPES (pH 7.4). […] The cells were washed 4× with the binding medium and solubilized in 1% SDS and 0.5 N NaOH. Radioactivity was quantified by gamma counting.

[4] = target: T1, rat GPR14 (U-II receptor); assay: Calcium flux assay (FLIPR); assay type: cell-based; conditions: Inhibition of acetyl-cyclic[Cys-Phe-Trp-Lys-(2-Nal)-Cys]-NH2 (1 nM) induced Ca2+ mobilization (FLIPR) in CHO cells transfected with rat UII receptor; 5 min incubation
Method in brief: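 Stable CHO cell line expressing cloned rat U-II receptor, seeded 24 h before assay, loaded with FLIPR calcium dye in HBSS/20 mM HEPES/0.1% BSA/2.5 mM probenecid, pH 7.4, for 1 hr at 37° C. Calcium mobilization read at room temperature (23° C.).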

isolated arterial rings [5] = conditions: humans; read-out: EC50, contraction of isolated arterial rings; cited from earlier work
isolated arterial rings [6] = conditions: rats; read-out: EC50, contraction of isolated arterial rings; cited from earlier work

In the case of `Cc1cc(NC(=O)NCCN2CCC(O)(Cc3ccccc3)CC2)c2ccccc2n1` [palosuran], the “development of proteinuria and renal damage” value [1] is listed as “delayed the development of proteinuria and renal damage”, the “glycemia, glycosylated hemoglobin, and serum lipids” value [1] is listed as “slowed the increase in glycemia, glycosylated hemoglobin, and serum lipids” and the insulin [1] is listed as “increased insulin”. The renal blood flow [1] was “increased renal blood flow” and the survival [1] was “improved survival”.

Work on `CN(C)C(=O)C1(c2ccc(Cl)cc2)CCN(CCN2C(=O)CCc3ccccc32)CC1` yielded a melting point of 243 to 245 °C.

In the case of “acetyl-cyclic[Cys-Phe-Trp-Lys-(2-Nal)-Cys]-NH2 [(Ac)-CFWK(2-NaI)C—NH2, agonist cyclic peptide used to induce Ca2+ mobilization in the FLIPR assay]”, the EC50 [2] is listed as 0.54 ± 0.2 nM and the Ki [3] is listed as 0.12 ± 0.05 nM.

With `CC(C)(C)OC(=O)N1CCN(CCNC(=O)c2cc(Cl)ccc2C2CCN(CCN3C(=O)COc4ccccc43)CC2)CC1` [Cpd 66, 4-[2-(5-chloro-2-{1-[2-(3-oxo-2,3-dihydro-benzo[1,4]oxazin-4-yl)-ethyl]-piperidin-4-yl}-benzoylamino)-ethyl]-piperazine-1-carboxylic acid tert-butyl ester] the Ki (Human UII receptors) was 57 nM and the IC50 [4] was 15 nM.

In the case of `CC(C)(C)OC(=O)NCCCCCNC(=O)c1ccccc1[C@@H]1C[C@H]2CC[C@@H](C1)N2CCN1C(=O)COc2ccccc21` [Cpd 98, [5-(2-{8-[2-(3-oxo-2,3-dihydro-benzo[1,4]oxazin-4-yl)-ethyl]-8-aza-bicyclo[3.2.1]oct-3-yl}-benzoylamino)-pentyl]-carbamic acid tert-butyl ester], the Ki (Human UII receptors) is reported as 1400 nM and the IC50 [4] is reported as 1600 nM.

For “AGTAD-cyclo(CFWKYC)-V [Goby U-II, Urotensin-II isolated from the urophysis of the goby fish as a 12-mer]”, the EC50 (isolated arterial rings [5]) is listed as less than 1 nM and the EC50 (isolated arterial rings [6]) is listed as less than 1 nM.

In the case of `O=C(NCCc1ccc2ccccc2c1)c1cc(Cl)ccc1C1CCN(CCN2C(=O)COc3ccccc32)CC1` [Cpd 61, 5-chloro-N-(2-naphthalen-2-yl-ethyl)-2-{1-[2-(3-oxo-2,3-dihydro-benzo[1,4]oxazin-4-yl)-ethyl]-piperidin-4-yl}-benzamide], the Ki (Human UII receptors) is reported as 260 nM and the IC50 [4] is reported as 2000 nM.

In the case of `O=C(NCCc1ccc2ccccc2c1)c1ccccc1C1CCN(CCN2C(=O)COc3ccccc32)CC1` [Cpd 20, N-(2-naphthalen-2-yl-ethyl)-2-{1-[2-(3-oxo-2,3-dihydro-benzo[1,4]oxazin-4-yl)-ethyl]-piperidin-4-yl}-benzamide], the Ki (Human UII receptors) is reported as 720 nM and the IC50 [4] is reported as 2000 nM.
